Data published in US20220289794A1, “SYNTHETIC ANTIMICROBIAL PEPTIDES” (priority 2019, published 2022).
In brackets after ≈: the same amount, converted by molar mass. Like-named read-outs stand apart in the source and are kept apart here. Non-standard residues stand in square brackets, D forms with d. Residues, ends and D or L forms follow the SMILES beside them. Bip = N[C@@H](Cc1ccc(-c2ccccc2)cc1)C(=O)O; Dip = N[C@H](C(=O)O)C(c1ccccc1)c1ccccc1; 2Nal = N[C@@H](Cc1ccc2ccccc2c1)C(=O)O

Assays:
[1] = system: Methicillin-resistant Staphylococcus aureus MRSA (ATCC BAA-1556)
[2] = system: Pseudomonas aeruginosa (ATCC 27883)
[3] = system: Escherichia coli (ATCC 25922)
human red blood cells = system: human red blood cells; set-up: unit not given beside the values

| MIC MRSA ATCC BAA-1556 ([1]; ATCC BAA-1556) | MIC S. aureus ATCC 29213 (S. aureus ATCC 29213; ATCC 29213) | MIC P. aeruginosa ATCC 27883 ([2]; ATCC 27883) | MIC E. coli ATCC 25922 ([3]; ATCC 25922) | Compound | MIC MRSA ATCC BAA-1556 [1] | MIC S. aureus ATCC 29213 (S. aureus ATCC 29213) | MIC P. aeruginosa ATCC 27883 [2] | MIC E. coli ATCC 25922 [3] | further results |
| --- | --- | --- | --- | --- | --- | --- | --- | --- | --- |
| 50 µg/mL (≈ 43.9 µM) | 50 µg/mL (≈ 43.9 µM) | >100 µg/mL | >100 µg/mL | N=C(N)NCCC[C@@H]1NC(=O)[C@H](CCCNC(=N)N)NC(=O)[C@H](Cc2ccc(-c3ccccc3)cc2)NC(=O)[C@H](Cc2ccc(-c3ccccc3)cc2)NC(=O)[C@H](Cc2ccc(-c3ccccc3)cc2)NC(=O)[C@H](CCCNC(=N)N)NC1=O [IFX-001, c[Arg-Arg-Arg-Bip-Bip-Bip]] (cyclo([Bip][Bip][Bip]RRR)) |  |  |  |  |  |
| 50 µg/mL (≈ 43.2 µM) | 50 µg/mL (≈ 43.2 µM) | >100 µg/mL | >100 µg/mL | N=C(N)NCCC[C@H](NC(=O)[C@H](CCCNC(=N)N)NC(=O)[C@@H](N)CCCNC(=N)N)C(=O)N[C@@H](Cc1ccc(-c2ccccc2)cc1)C(=O)N[C@@H](Cc1ccc(-c2ccccc2)cc1)C(=O)N[C@@H](Cc1ccc(-c2ccccc2)cc1)C(=O)O [IFX-001-1, NH2-Arg-Arg-Arg-Bip-Bip-Bip-OH] (H-RRR[Bip][Bip][Bip]-OH) |  |  |  |  |  |
| >100 µg/mL | 50 µg/mL (≈ 32.9 µM) | >100 µg/mL | >100 µg/mL | N=C(N)NCCC[C@@H]1NC(=O)[C@H](CCCNC(=N)N)NC(=O)[C@H](CCCNC(=N)N)NC(=O)[C@H](Cc2ccc(-c3ccccc3)cc2)NC(=O)[C@H](Cc2ccc(-c3ccccc3)cc2)NC(=O)[C@H](Cc2ccc(-c3ccccc3)cc2)NC(=O)[C@H](Cc2ccc(-c3ccccc3)cc2)NC(=O)[C@H](CCCNC(=N)N)NC1=O [IFX-004, c[Arg-Arg-Arg-Arg-Bip-Bip-Bip-Bip]] (cyclo([Bip][Bip][Bip][Bip]RRRR)) |  |  |  |  |  |
| >100 µg/mL | >100 µg/mL | >100 µg/mL | >100 µg/mL | N=C(N)NCCC[C@H](NC(=O)[C@H](CCCNC(=N)N)NC(=O)[C@H](CCCNC(=N)N)NC(=O)[C@@H](N)CCCNC(=N)N)C(=O)N[C@@H](Cc1ccc(-c2ccccc2)cc1)C(=O)N[C@@H](Cc1ccc(-c2ccccc2)cc1)C(=O)N[C@@H](Cc1ccc(-c2ccccc2)cc1)C(=O)N[C@@H](Cc1ccc(-c2ccccc2)cc1)C(=O)O [IFX-004-1, NH2-Arg-Arg-Arg-Arg-Bip-Bip-Bip-Bip-OH] (H-RRRR[Bip][Bip][Bip][Bip]-OH) |  |  |  |  |  |
| 6.2 µg/mL (≈ 4.79 µM) | 3.1 µg/mL (≈ 2.39 µM) | 25 µg/mL (≈ 19.3 µM) | >100 µg/mL | N=C(N)NCCC[C@@H]1NC(=O)[C@H](CCCNC(=N)N)NC(=O)[C@H](CCCNC(=N)N)NC(=O)[C@H](Cc2ccc(-c3ccccc3)cc2)NC(=O)[C@H](Cc2ccc(-c3ccccc3)cc2)NC(=O)[C@H](Cc2ccc(-c3ccccc3)cc2)NC(=O)[C@H](CCCNC(=N)N)NC1=O [IFX-007, c[Arg-Arg-Arg-Arg-Bip-Bip-Bip]] (cyclo([Bip][Bip][Bip]RRRR)) |  |  |  |  |  |
| 6.2 µg/mL (≈ 4.72 µM) | 6.2 µg/mL (≈ 4.72 µM) | 25 µg/mL (≈ 19 µM) | >100 µg/mL | N=C(N)NCCC[C@H](NC(=O)[C@H](CCCNC(=N)N)NC(=O)[C@H](CCCNC(=N)N)NC(=O)[C@@H](N)CCCNC(=N)N)C(=O)N[C@@H](Cc1ccc(-c2ccccc2)cc1)C(=O)N[C@@H](Cc1ccc(-c2ccccc2)cc1)C(=O)N[C@@H](Cc1ccc(-c2ccccc2)cc1)C(=O)O [IFX-007-1, NH2-Arg-Arg-Arg-Arg-Bip-Bip-Bip-OH] (H-RRRR[Bip][Bip][Bip]-OH) |  |  |  |  |  |
| 3.1 µg/mL (≈ 2.11 µM) | 3.1 µg/mL (≈ 2.11 µM) | 50 µg/mL (≈ 34 µM) | 25 µg/mL (≈ 17 µM) | N=C(N)NCCC[C@H](NC(=O)[C@H](CCCNC(=N)N)NC(=O)[C@H](CCCNC(=N)N)NC(=O)[C@@H](N)CCCNC(=N)N)C(=O)N[C@@H](CCCNC(=N)N)C(=O)N[C@H](C(=O)N[C@H](C(=O)N[C@H](C(=O)O)C(c1ccccc1)c1ccccc1)C(c1ccccc1)c1ccccc1)C(c1ccccc1)c1ccccc1 [IFX-012-1, NH2-Arg-Arg-Arg-Arg-Arg-Dip-Dip-Dip-OH] (H-RRRRR[Dip][Dip][Dip]-OH) |  |  |  |  |  |
|  |  |  |  | N=C(N)NCCC[C@@H]1NC(=O)[C@H](CCCNC(=N)N)NC(=O)[C@H](Cc2c[nH]c3ccccc23)NC(=O)[C@H](C(c2ccccc2)c2ccccc2)NC(=O)[C@H](C(c2ccccc2)c2ccccc2)NC(=O)[C@H](CCCNC(=N)N)NC1=O [IFX-022, c[Arg-Arg-Arg-Dip-Dip-Trp]] (cyclo([Dip][Dip]WRRR)) |  |  |  |  | HC50 (human red blood cells): 215 |
|  |  |  |  | N=C(N)NCCC[C@@H]1NC(=O)[C@H](CCCNC(=N)N)NC(=O)[C@H](Cc2ccc3ccccc3c2)NC(=O)[C@H](Cc2ccc3ccccc3c2)NC(=O)[C@H](Cc2c[nH]c3ccccc23)NC(=O)[C@H](CCCNC(=N)N)NC1=O [IFX-023, c[Arg-Arg-Arg-Trp-NaI-NaI]] (cyclo(RRRW[2Nal][2Nal])) |  |  |  |  | HC50 (human red blood cells): 175 |
|  |  |  |  | N=C(N)NCCC[C@@H]1NC(=O)[C@H](CCCNC(=N)N)NC(=O)[C@H](Cc2ccc3ccccc3c2)NC(=O)[C@H](Cc2c[nH]c3ccccc23)NC(=O)[C@H](Cc2ccc3ccccc3c2)NC(=O)[C@H](CCCNC(=N)N)NC1=O [IFX-024, c[Arg-Arg-Arg-NaI-Trp-NaI]] (cyclo(RRR[2Nal]W[2Nal])) |  |  |  |  | HC50 (human red blood cells): 250 |
| 25 µg/mL (≈ 15.6 µM) | 25 µg/mL (≈ 15.6 µM) | 50 µg/mL (≈ 31.3 µM) | 50 µg/mL (≈ 31.3 µM) | N=C(N)NCCC[C@@H]1NC(=O)CNC(=O)CNC(=O)[C@H](Cc2c[nH]c3ccccc23)NC(=O)[C@H](Cc2c[nH]c3ccccc23)NC(=O)[C@H](Cc2c[nH]c3ccccc23)NC(=O)[C@H](Cc2c[nH]c3ccccc23)NC(=O)CNC(=O)CNC(=O)[C@H](CCCNC(=N)N)NC(=O)[C@H](CCCNC(=N)N)NC(=O)[C@H](CCCNC(=N)N)NC1=O [IFX-044] (cyclo(GGRRRRGGWWWW)) |  |  |  |  |  |
|  |  |  |  | N=C(N)NCCC[C@@H]1NC(=O)[C@H](CCCNC(=N)N)NC(=O)[C@H](Cc2c[nH]c3ccccc23)NC(=O)[C@H](Cc2c[nH]c3ccccc23)NC(=O)[C@H](Cc2c[nH]c3ccccc23)NC(=O)[C@H](Cc2c[nH]c3ccccc23)NC(=O)[C@H](Cc2c[nH]c3ccccc23)NC(=O)[C@H](Cc2c[nH]c3ccccc23)NC(=O)[C@H](Cc2c[nH]c3ccccc23)NC(=O)[C@H](CCCNC(=N)N)NC1=O [IFX-306] (cyclo(RRRWWWWWWW)) |  |  |  |  | MIC P. aeruginosa ATCC 27883 ([2]; Table 19): 256 µg/mL (≈ 144 µM) |
|  |  |  | 16 µg/mL (≈ 11.7 µM) | N=C(N)NCCC[C@H]1NC(=O)[C@H](Cc2c[nH]c3ccccc23)NC(=O)[C@H](Cc2c[nH]c3ccccc23)NC(=O)[C@H](Cc2c[nH]c3ccccc23)NC(=O)[C@H](Cc2c[nH]c3ccccc23)NC(=O)[C@@H](CCCNC(=N)N)NC(=O)[C@@H](CCCNC(=N)N)NC(=O)[C@@H](CCCNC(=N)N)NC1=O [IFX-309] (cyclo([dR][dR][dR][dR]WWWW)) |  |  |  |  |  |
|  |  |  |  | c[Arg-Arg-Arg-Arg-1meW-1meW-1meW-1meW] [IFX-041] | 6.2 µg/mL | 3.1 µg/mL | 25 µg/mL | 25 µg/mL |  |
|  |  |  |  | c[Arg-Arg-Arg-Arg-5brW-5brW-5brW-5brW] [IFX-039] | 25 µg/mL | 25 µg/mL | >100 µg/mL | >100 µg/mL |  |
|  |  |  |  | c[Arg-Arg-Arg-Arg-5fW-5fW-5fW-5fW] [IFX-038] | 25 µg/mL | 12.5 µg/mL | 100 µg/mL | 50 µg/mL |  |
|  |  |  |  | c[Arg-Arg-Arg-Arg-7metW-7metW-7metW-7metW] [IFX-042] | 6.2 µg/mL | 6.1 µg/mL | 50 µg/mL | 25 µg/mL |  |
|  |  |  |  | c[Arg-arg-Arg-arg-PEG4-Trp-naI-naI] [IFX-051] | 32 µg/mL | 32 µg/mL | 128 µg/mL | 128 µg/mL |  |
|  |  |  |  | c[Arg-arg-PEG4-Arg-arg-Trp-naI-naI] [IFX-052] | 32 µg/mL | 32 µg/mL | 128 µg/mL | 64 µg/mL |  |
|  |  |  |  | c[PEG1-Arg-Arg-Arg-Arg-Arg-PEG1-Dip-Dip-Dip] [IFX-050-1] | 32 µg/mL | 16 µg/mL | 128 µg/mL | 32 µg/mL |  |
|  |  |  |  | c[PEG1-Arg-Arg-Arg-Arg-PEG1-Dip-Dip-Dip] [IFX-048] | 16 µg/mL | 16 µg/mL | 64 µg/mL | 64 µg/mL |  |
|  |  |  |  | c[PEG1-Arg-Arg-Arg-Arg-PEG1-Trp-Trp-Trp-Trp] [IFX-046] | 25 µg/mL | 25 µg/mL | 50 µg/mL | 50 µg/mL |  |
|  |  |  |  | c[PEG2-Arg-Arg-Arg-Arg-Arg-PEG2-Dip-Dip-Dip] [IFX-050-2] | 16 µg/mL | 16 µg/mL | 128 µg/mL | 64 µg/mL |  |
|  |  |  |  | c[PEG2-Arg-Arg-Arg-Arg-PEG2-Dip-Dip-Dip] [IFX-049] | 8 µg/mL | 8 µg/mL | 64 µg/mL | 128 µg/mL |  |
|  |  |  |  | c[PEG2-Arg-Arg-Arg-Arg-PEG2-Trp-Trp-Trp-Trp] [IFX-047] | 50 µg/mL | 50 µg/mL | 50 µg/mL | 100 µg/mL |  |
|  |  |  |  | c[PEG4-Arg-arg-Arg-arg-Trp-naI-naI] [IFX-053] | 16 µg/mL | 16 µg/mL | 128 µg/mL | 64 µg/mL |  |
